The supplement of paper PMC11061612

Assays:
[1] = system: SUP-HD1 (Hodgkin's Lymphoma); test: combination Emax (second highest fraction inhibited in the dose matrix, 72 h); higher = more inhibition; extreme values may be limits of the assay
Procedure, shortened: (§1)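 Bliss excess equals the observed combination effect minus the expected value EA + EB − EA·EB, where EA and EB are the effects of each agent alone. Combination Emax is the second-highest inhibition within the matrix. Inhibition was scaled from CellTiter-Glo 2.0 luminescence, with 0 set by vehicle wells and 1 by blank wells, after 72 hours of two-drug dosing of cells plated in 1536-well plates.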

[2] = system: TK (B-Cell Non-Hodgkin's Lymphoma); test: as above
Procedure, shortened: as §1

[3] = system: BT-474 (Breast Carcinoma); test: as above
Procedure, shortened: as §1

[4] = system: NCI-H1944 (Lung Adenocarcinoma); test: as above
Procedure, shortened: as §1

[5] = system: OVKATE (Ovarian Carcinoma); test: as above
Procedure, shortened: as §1

[6] = system: NTERA-2-cl-D1 (Other Solid Carcinomas); test: as above
Procedure, shortened: as §1

[7] = system: SBC-3 (Small Cell Lung Carcinoma); test: as above
Procedure, shortened: as §1

[8] = system: SW1463 (Colorectal Carcinoma); test: as above
Procedure, shortened: as §1

[9] = system: NCI-H2023 (Non-Small Cell Lung Carcinoma); test: as above
Procedure, shortened: as §1

[10] = system: NCI-H1048 (Small Cell Lung Carcinoma); test: as above
Procedure, shortened: as §1

GCIY (Gastric Carcinoma) = test: as above
Procedure, shortened: as §1

[11] = system: RS4-11 (B-Lymphoblastic Leukemia); test: as above
Procedure, shortened: as §1

[12] = system: RPMI-8402 (T-Lymphoblastic Leukemia); test: Bliss excess, mean over the matrix (fraction); higher = more synergy
Procedure, shortened: as §1

[13] = system: SCC90 (Head and Neck Carcinoma); test: as above
Procedure, shortened: as §1

[14] = system: SBC-5 (Small Cell Lung Carcinoma); test: as above
Procedure, shortened: as §1

A375 (Melanoma) = test: as above
Procedure, shortened: as §1

[15] = system: MRK-nu-1 (Breast Carcinoma); test: as above
Procedure, shortened: as §1

NCI-H2452 (Mesothelioma) = test: as above
Procedure, shortened: as §1

[16] = system: NCI-H2023 (Non-Small Cell Lung Carcinoma); test: as above
Procedure, shortened: as §1

[17] = system: HT-1197 (Bladder Carcinoma); test: as above
Procedure, shortened: as §1

Row | Compound | combination Emax [1] | combination Emax [2] | combination Emax [3] | combination Emax [4] | combination Emax [5] | combination Emax [6] | combination Emax [7] | combination Emax [8] | combination Emax [9] | combination Emax [10] | combination Emax (GCIY (Gastric Carcinoma)) | combination Emax [11] | Bliss excess [12] | Bliss excess [13] | Bliss excess [14] | Bliss excess (A375 (Melanoma)) | Bliss excess [15] | Bliss excess (NCI-H2452 (Mesothelioma)) | Bliss excess [16] | Bliss excess [17]
1 | CC1(C)CCC(CN2CCN(c3ccc(C(=O)NS(=O)(=O)c4ccc(NCC5CCOCC5)c([N+](=O)[O-])c4)c(Oc4cnc5[nH]ccc5c4)c3)CC2)=C(c2ccc(Cl)cc2)C1 [Venetoclax] + Cc1cc2ncnn2cc1Nc1ncc2c(n1)n(C1CCOCC1)c(=O)n2C [AZD7648] (first compound max 1 µM, 7x7, partner max 10 µM) | 0.795 | 0.967 | 0.197 | 0.353 | 0.28 | 0.743 | 0.543 | 0.0854 | 0.392 | 0.59 | 0.558 | 1 | 0.0235 | 0.118 | 0.0086 | -0.0301 | 0.0037 | -0.0388 | -0.0513 | -0.0208
2 | NC1(C(=O)N[C@@H](CCO)c2ccc(Cl)cc2)CCN(c2ncnc3[nH]ccc23)CC1 [Capivasertib] + CCN(CCO)CCCOc1ccc2c(Nc3cc(CC(=O)Nc4cccc(F)c4)[nH]n3)ncnc2c1 [AZD2811] (first compound max 10 µM, 7x7, partner max 1 µM) | 0.657 | 0.231 | 0.348 | 0.628 | 0.309 | 0.481 | 0.622 | 0.319 | 0.412 | 0.784 | 0.504 | 0.96 | -0.0421 | 0.0332 | 0.0526 | -0.0008 | 0.0481 | -0.079 | -0.0087 | 0.016
3 | Cc1c2c(nn1C)CSCc1cc(n(C)n1)CSc1cc(c3ccccc3c1)OCCCc1c(C(=O)O)n(C)c3c-2c(Cl)ccc13 [AZD5991] + C[C@@H]1COCCN1C2=NC(=NC(=C2)C3(CC3)[S@](=N)(=O)C)C4=C5C=CNC5=NC=C4 [AZD6738] (first compound max 1 µM, 7x7, partner max 10 µM) | 0.891 | 0.895 | 0.334 | 0.928 | 0.421 | 0.928 | 0.746 | 0.506 | 0.814 | 1 | 0.808 | 1 | -0.0027 | 0.0141 | 0.0509 | 0.0291 | 0.0056 | 0.0425 | -0.0078 | -0.104
4 | Cc1c2c(nn1C)CSCc1cc(n(C)n1)CSc1cc(c3ccccc3c1)OCCCc1c(C(=O)O)n(C)c3c-2c(Cl)ccc13 [AZD5991] + Cn1cnc2c(F)c(Nc3ccc(Br)cc3Cl)c(C(=O)NOCCO)cc21 [Selumetinib] (first compound max 1 µM, 7x7, partner max 3 µM) | 0.593 | 0.114 | 0.246 | 0.304 | 0.265 | 0.562 | 0.225 | 0.547 | 0.294 | 0.971 | 0.465 | 0.497 | 0.0125 | 0.0581 | 0 | 0.0086 | 0.0052 | 0.0633 | 0.0293 | -0.0375
5 | CC1(C)CCC(CN2CCN(c3ccc(C(=O)NS(=O)(=O)c4ccc(NCC5CCOCC5)c([N+](=O)[O-])c4)c(Oc4cnc5[nH]ccc5c4)c3)CC2)=C(c2ccc(Cl)cc2)C1 [Venetoclax] + Cn1cnc2c(F)c(Nc3ccc(Br)cc3Cl)c(C(=O)NOCCO)cc21 [Selumetinib] (first compound max 1 µM, 7x7, partner max 3 µM) | 0.809 | 0.981 | 0.0915 | 0.239 | 0.217 | 0.742 | 0.605 | 0.352 | 0.177 | 0.153 | 0.514 | 1 | -0.031 | 0.161 | -0.0096 | -0.0437 | -0.0139 | -0.0501 | -0.0489 | -0.0072
6 | NC1(C(=O)N[C@@H](CCO)c2ccc(Cl)cc2)CCN(c2ncnc3[nH]ccc23)CC1 [Capivasertib] + CC(=O)c1c(C)c2cnc(Nc3ccc(N4CCNCC4)cn3)nc2n(C2CCCC2)c1=O [Palbociclib] (first compound max 10 µM, 7x7, partner max 10 µM) | 0.569 | 0.0563 | 0.332 | 0.798 | 0.265 | 0.294 | 0.67 | 0.502 | 0.402 | 0.503 | 0.631 | 0.605 | -0.0296 | -0.0256 | 0.0352 | 0.0051 | 0.001 | -0.02 | 0.0276 | 0.0024
7 | CN(CCO)CC[C@H](CSc1ccccc1)Nc1ccc(S(=O)(=O)NC(=O)c2ccc(N3CCC([C@@H](O)c4ccccc4-c4ccc(Cl)cc4)CC3)cc2)cc1S(=O)(=O)C(F)(F)F [AZD4320] + C=CCn1c(=O)c2cnc(Nc3ccc(N4CCN(C)CC4)cc3)nc2n1-c1cccc(C(C)(C)O)n1 [AZD1775] (first compound max 1 µM, partner max 1 µM) | 0.952 | 1 | 0.526 | 0.813 | 0.528 | 0.775 | 0.69 | 0.468 | 0.623 | 1 | 0.708 | 1 | 0.0269 | 0.0385 | 0.0264 | 0.0133 | -0.0295 | 0.0257 | -0.0108 | 0.0626
8 | CCN(CCO)CCCOc1ccc2c(Nc3cc(CC(=O)Nc4cccc(F)c4)[nH]n3)ncnc2c1 [AZD2811] + C=CCn1c(=O)c2cnc(Nc3ccc(N4CCN(C)CC4)cc3)nc2n1-c1cccc(C(C)(C)O)n1 [AZD1775] (first compound max 1 µM, partner max 1 µM) | 0.841 | 0.901 | 0.125 | 0.471 | 0.233 | 0.845 | 0.539 | 0.48 | 0.574 | 0.859 | 0.41 | 0.965 | -0.0544 | 0.0258 | 0.114 | 0.0143 | 0.0147 | -0.0387 | 0.0031 | -0.114
9 | CCN(CCO)CCCOc1ccc2c(Nc3cc(CC(=O)Nc4cccc(F)c4)[nH]n3)ncnc2c1 [AZD2811] + C[C@@H]1COCCN1C2=NC(=NC(=C2)C3(CC3)[S@](=N)(=O)C)C4=C5C=CNC5=NC=C4 [AZD6738] (first compound max 1 µM, 7x7, partner max 10 µM) | 0.781 | 0.901 | 0.239 | 0.733 | 0.344 | 0.784 | 0.656 | 0.46 | 0.818 | 0.804 | 0.851 | 1 | -0.0312 | 0.019 | -0.0236 | -0.0573 | -0.077 | -0.0756 | -0.0555 | -0.0441
10 | COc1cccc2c1C(=O)c1c(O)c3c(c(O)c1C2=O)C[C@@](O)(C(=O)CO)C[C@@H]3O[C@H]1C[C@H](N)[C@H](O)[C@H](C)O1 [Doxorubicin] + Cc1cc2ncnn2cc1Nc1ncc2c(n1)n(C1CCOCC1)c(=O)n2C [AZD7648] (first compound max 1 µM, 7x7, partner max 10 µM) | 0.878 | 0.73 | 0.197 | 0.625 | 0.282 | 1 | 0.968 | 0.196 | 0.825 | 0.933 | 0.663 | 0.977 | 0.0782 | -0.0226 | 0.0341 | 0.09 | 0.0157 | 0.0928 | 0.0476 | 0.0022
11 | C=CCn1c(=O)c2cnc(Nc3ccc(N4CCN(C)CC4)cc3)nc2n1-c1cccc(C(C)(C)O)n1 [AZD1775] + O=C(c1cc(Cc2n[nH]c(=O)c3ccccc23)ccc1F)N1CCN(C(=O)C2CC2)CC1 [Olaparib] (first compound max 1 µM, partner max 10 µM) | 0.871 | 0.898 | 0.237 | 0.41 | 0.311 | 0.914 | 0.621 | 0.521 | 0.717 | 0.874 | 0.568 | 0.952 | 0.0113 | -0.0686 | -0.0435 | -0.0161 | -0.0311 | -0.0608 | -0.039 | -0.0023
12 | CC1(C)CCC(CN2CCN(c3ccc(C(=O)NS(=O)(=O)c4ccc(NCC5CCOCC5)c([N+](=O)[O-])c4)c(Oc4cnc5[nH]ccc5c4)c3)CC2)=C(c2ccc(Cl)cc2)C1 [Venetoclax] + CN(C)CCCOc1ccc(-c2ccc3ncc4c(c3c2)n(C2CCOCC2)c(=O)n4C)cn1 [AZD0156] (first compound max 1 µM, 7x7, partner max 1 µM) | 0.761 | 0.969 | 0.175 | 0.228 | 0.208 | 0.755 | 0.766 | 0.0973 | 0.338 | 0.178 | 0.403 | 1 | 0.0022 | 0.0217 | 0.011 | -0.003 | 0.0046 | -0.0149 | -0.058 | -0.0266
13 | COc1cccc(OCCCN)c1-c1cc(Nc2cnc(C#N)cn2)n[nH]1 [Prexasertib] + O=C(c1cc(Cc2n[nH]c(=O)c3ccccc23)ccc1F)N1CCN(C(=O)C2CC2)CC1 [Olaparib] (first compound max 1 µM, 7x7, partner max 10 µM) | 0.802 | 0.891 | 0.24 | 0.613 | 0.371 | 0.742 | 0.744 | 0.601 | 0.801 | 0.894 | 0.837 | 1 | -0.0292 | -0.095 | -0.0376 | -0.0101 | -0.0392 | -0.0874 | -0.0213 | -0.044
